# How the values were obtained:
# P. aeruginosa biofilms = assay: Biofilm model: 24 hour exposure against 24 hour old single species biofilm, viable count; format: cell-based, Pseudomonas aeruginosa; settings: 30 μl per disc/biofilm, 37° C., 80 rpm shaking, FIG. 1
# Description: (§1) Stationary phase cultures of S. aureus or P. aeruginosa grown in TSB were adjusted to 0.5 McFarland (c. 1.5×10^8 CFU/mL) and diluted a further 1:4 ratio (1 mL inoculum with 3 mL 0.1% Bactopeptone). A viable count was taken of each inoculum preparation. Sterile discs (6 mm diameter×1.0 mm) housed in 24 well culture plates were inoculated with 80 μL of culture. 0.2 ml of a test media was then added, the assay plates were parafilmed and incubated for 24 h at 37 degrees Celsius with 80 rpm shaking to allow biofilm formation. Unused wells were filled with PBS to increase humidity and prevent evaporation. After 24 hours incubation, cellulose discs/biofilms were rinsed with PBS to remove any […] vegetative cells and transferred to 150 μl of fresh media. For the honey (as the source of glucose) and Prontosan®, 30 μl was added to each test disc. […] Assuming the lowest concentration (100,[…]), 3.5 mg (350 U) was added to 3.5 ml of DPBS to give a 100 U/ml working stock which was filter sterilised. For the Pseudomonas experiment, the working stock was diluted in PBS to give a 10 U/ml solution-30 μl was added to a disc/biofilm. […] 30 μl of each was added to a disc/biofilm. The assay plates were parafilmed and incubated for 24 hours at 37° C. with 80 rpm shaking to allow biofilm disruption. Unused wells were filled with PBS to increase humidity and prevent evaporation. […]
# S. aureus biofilms = assay: as above; format: cell-based, Staphylococcus aureus; settings: 30 μl per disc/biofilm, 37° C., 80 rpm shaking, FIG. 2
# Description: as §1, with “sterilised.” for “sterilised. For the Pseudomonas experiment, the working stock was diluted in PBS to give a 10 U/ml solution-30 μl was added to a disc/biofilm.”
substance,measurement,setting,value
glucose oxidase [glucose oxidase alone],inhibition of 24 hour old single species biofilms of P. aeruginosa,P. aeruginosa biofilms,no inhibition
same,inhibition of 24 hour old single species biofilms of S. aureus,S. aureus biofilms,no inhibition

# Source: patent publication US10813982B2, “Composition comprising an oxidoreductase enzyme and its antibacterial use” (SYSTAGENIX WOUND MANAGEMENT, LIMITED, priority 2015, dated 2020)
